Reference: patent US20170119806A1, “[…] LACTONE DERIVATIVES AND METHODS OF MAKING AND USING THEREOF” (OHIO STATE INNOVATION FOUNDATION, priority 2014, published 2017)
Entries after “also recorded” stand apart in the source; their conditions may differ.

Experiments:
[1] = biological target: topo IIα (Homo sapiens, UniProt P11388); experiment: Topoisomerase II assay (DNA cleavage/relaxation); format: biochemical; conditions: 100 μM test compound
Description: The formation of linear DNA was detected by separating the SDS-treated reaction products using ethidium bromide gel electrophoresis and quantified by accounting for the relationship between fluorescence and relative band intensity for open circular (OC), linear (LNR), supercoiled (SC), and relaxed (RLX) configurations of DNA.
Topoisomerase II Assay. […] The formation of linear DNA was detected by separating the SDS-treated reaction products using ethidium bromide gel electrophoresis by a modification of a previously described procedure (Hasinoff B B et al. Mol. Pharmacol. 2005, 67, 937-947). In this system, topo II-mediated catalytic conversion of supercoiled pBR322 DNA to the “relaxed” form of plasmic' DNA can also be observed. A 20 μL cleavage assay reaction mixture contained 250 ng topo IIα protein, 160 ng pBR322 plasmid DNA (NEB, Ipswich, Mass.), 1.0 mM ATP in assay buffer (10 mM Tris-HCl (pH 7.5), 50 mM KCl, 50 mM NaCl, 0.1 mM EDTA, 5 mM MgCl2, 2.5% glycerol), and 100 μM of test compounds or DMSO solvent, as indicated. Assay buffer (17 μL) and test compound/DMSO (1 μL) were mixed and allowed to sit at room temperature for 30 min after which 2 μL of topo IIα was added to initiate the reaction. Tubes were incubated at 37° C. for 15 min, and then quenched with 1% (v/v) SDS/10 mM disodium EDTA/200 mM NaCl. The mixture was treated subsequently with 0.77 mg/mL proteinase K (Sigma) at 55° C. for 60 min to digest the protein, and DNA bands were separated by electrophoresis (18 h at 2 V/cm) on an agarose gel (1.3% w/v) containing 0.7 μg/mL ethidium bromide in TAE buffer pH 8.0 (40 mM Tris base, 0.114% (v/v) glacial acetic acid, 2 mM EDTA). The DNA in the gel was imaged by its fluorescence on a Chemi-Doc XRS+ imager (Bio-Rad, Hercules, Calif.). Linear DNA was quantified by accounting for the relationship between fluorescence and relative band intensity for open circular (QC), linear (LNR), supercoiled (SC), and RLX (relaxed) configurations of DNA (Projan S J et al. Plasmid 1983, 9, 182-190), then calculating % of LNR from the total DNA content in each lane.

[2] = test system: CD4+ or CD8+ T cells; experiment: T cell IFN-γ production (intracellular flow cytometry in PBMCs); format: cell-based, human; conditions: 10 μM PL-C, 18 h, with IL-12 or IL-15; listed as PL-C
Experimental: (A) Human […] were treated with DMSO vehicle control or 10 μM PL-C for 18 hours in the presence of IL-12 (10 ng/mL) or IL-15 (100 ng/mL), as described in FIG. 37C. The cells were harvested for intracellular flow cytometry to determine the frequency of IFN-γ^+ cells in CD56^−CD3^+[…] or CD56^−CD3^+CD8^+T. Representative data from 1 out of 5 donors are shown. (B) Purified primary NK cells were treated with IL-12 (10 ng/mL) or IL-15 (100 ng/mL) with or without 10 μM PL-C for 8 hours and were sequentially co-cultured with […] labeled ARH-77 cells at various effector/target cell ratios for additional 4 hours. ^51Cr release was measured by a TopCount counter. Data shown are the means of 3 donors. […] Error bars represent S.D. (C) Purified primary NK cells were treated with 10 μM PL-C in the presence of IL-12 (10 ng/mL) (top) or IL-15 (100 ng/mL) (bottom) for 12 hours, and cell pellets were harvested for detecting granzyme A (GZMA), granzyme B (GZMB), perforin (PRF1) and Fas (Fasl) mRNA expression level by real-time RT-PCR. Data shown are the means of 6 donors. p>0.05, vehicle control versus PL-C in all panels. Error bars represent S.D.
Intracellular flow cytometry. […] Data were acquired using an LSRII (BD Biosciences) flow cytometer and analyzed using FlowJo software (Tree Star, Ashland, Oreg.).

[3] = Toxicity of PL-C in mice; format: in vivo; conditions: up to 500 mg PL-C/kg body weight
Description: The findings discussed herein provide an avenue to prevent or treat cancer using natural products and their derivatives through enhancing NK cell immuno-surveillance. […] Developing less toxic drugs is important for preventing or treating some cancers, especially thr those which are dominant in children or in elderly populations, such as AML AML primarily affects older adults: the median age at diagnosis is >65 years (Estey E and Milner H. Lancet 2006, 368, 18941907; Yanada M and Naoe T. Int. J. Hematol. 2012, 96, 186-193). The 5 year survival rate of AML in older adults remains under 10% (Stein E M and Tallman M S. Int J. Hematol 2012, 96, 164-170). Elderly AML patients are less able than younger patients to tolerate effective therapies such as intensive chemotherapy and allogeneic stem cell transplantation.

[4] = test system: HT-29 human colon cancer cells
Experimental: The cytotoxicity of the test compounds was screened against HT-29 cells by a previously reported procedure (Ren Y et al. J. Nat. Prod 2011, 74, 1117-1125). Paclitaxel and etoposide were used as positive controls.
All arylnaphthalene lignans isolated from P. poilanet in the present study and their semi-synthetic analogues were evaluated for their cytotoxicity against HT-29 human colon cancer cells, using paclitaxel as the positive control (Table 6) (Ren Y et al. J. Nat. Prod 2011, 74, 1117-1125).

Chain of topo IIα (P11388 whole entry): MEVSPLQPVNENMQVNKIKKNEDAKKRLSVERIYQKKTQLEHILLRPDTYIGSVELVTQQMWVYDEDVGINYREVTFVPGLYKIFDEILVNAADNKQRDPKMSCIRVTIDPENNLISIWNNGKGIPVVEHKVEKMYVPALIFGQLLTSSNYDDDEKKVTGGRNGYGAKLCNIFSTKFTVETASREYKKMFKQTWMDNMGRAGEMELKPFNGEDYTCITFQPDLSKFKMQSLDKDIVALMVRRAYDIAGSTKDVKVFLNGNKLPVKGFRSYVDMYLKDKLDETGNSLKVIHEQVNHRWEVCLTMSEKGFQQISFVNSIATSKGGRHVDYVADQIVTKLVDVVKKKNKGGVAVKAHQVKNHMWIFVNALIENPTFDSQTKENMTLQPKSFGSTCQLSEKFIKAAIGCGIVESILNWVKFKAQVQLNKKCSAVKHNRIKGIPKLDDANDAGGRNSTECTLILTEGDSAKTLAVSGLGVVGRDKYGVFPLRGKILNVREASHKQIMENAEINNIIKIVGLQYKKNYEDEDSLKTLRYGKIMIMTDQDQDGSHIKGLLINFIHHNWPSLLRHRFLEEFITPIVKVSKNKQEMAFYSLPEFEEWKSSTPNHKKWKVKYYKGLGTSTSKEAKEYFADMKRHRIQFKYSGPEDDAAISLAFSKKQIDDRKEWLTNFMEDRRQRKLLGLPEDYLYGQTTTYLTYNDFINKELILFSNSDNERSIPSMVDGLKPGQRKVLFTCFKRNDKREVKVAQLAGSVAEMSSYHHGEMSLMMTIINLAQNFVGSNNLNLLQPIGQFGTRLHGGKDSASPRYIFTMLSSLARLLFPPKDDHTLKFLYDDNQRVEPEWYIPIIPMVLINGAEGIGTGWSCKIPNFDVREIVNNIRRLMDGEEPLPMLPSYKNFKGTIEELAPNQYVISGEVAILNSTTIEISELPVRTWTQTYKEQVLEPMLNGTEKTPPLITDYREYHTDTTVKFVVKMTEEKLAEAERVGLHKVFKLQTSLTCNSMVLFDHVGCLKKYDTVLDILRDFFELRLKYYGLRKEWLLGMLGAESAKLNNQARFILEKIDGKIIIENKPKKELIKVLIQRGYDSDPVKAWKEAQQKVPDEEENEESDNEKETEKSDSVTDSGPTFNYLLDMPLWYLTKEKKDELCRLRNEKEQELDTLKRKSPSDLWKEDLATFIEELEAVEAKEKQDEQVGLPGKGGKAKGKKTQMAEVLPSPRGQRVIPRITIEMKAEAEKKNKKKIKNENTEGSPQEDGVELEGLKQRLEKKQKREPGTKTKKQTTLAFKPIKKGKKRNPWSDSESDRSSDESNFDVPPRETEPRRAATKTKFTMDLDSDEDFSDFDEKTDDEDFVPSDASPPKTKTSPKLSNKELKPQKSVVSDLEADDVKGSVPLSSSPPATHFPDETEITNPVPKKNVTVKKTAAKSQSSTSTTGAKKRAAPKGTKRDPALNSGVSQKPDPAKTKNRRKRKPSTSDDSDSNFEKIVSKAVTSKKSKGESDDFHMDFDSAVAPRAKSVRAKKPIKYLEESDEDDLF

COc1cc2c(OC3OCC(O)C(O)C3O)c3c(c(-c4ccc5c(c4)OCO5)c2cc1OC)C(=O)OC3 (stereo not shown) [Compound 4, Phyllanthusmin C]
topo IIα inhibition (in words) [1]: not topo Ha inhibitors; also recorded: not topo IIα inhibitors
T cell IFN-γ production [2]: little or no; also recorded: negligibly activated T cell IFN-γ production; also recorded: few, if any
toxicity in mice [3]: lack of substantial toxicities
cytotoxicity toward HT-29 cells (in words) [4]: cytotoxic
